System: anti-PCP antibody from ATCC HB 9198
Format: binding, rat
Details: for IC50: read-out: Molar IC50

**Q.** With Oc1ccc(Cl)c(Cl)c1Cl [2,3,4-Trichlorophenol] as the molecule, how does the “Percent Cross Reactivity With PCP” value read?
**A.** Its value is 0.5%.

**Q.** For Oc1c(Cl)c(Cl)cc(Cl)c1Cl [2,3,5,6-Tetrachlorophenol], which “Percent Cross Reactivity With PCP” value is on record?
**A.** Its value is 42%.

**Q.** For Oc1cc(Cl)cc(Cl)c1Cl [2,3,5-Trichlorophenol], which “Percent Cross Reactivity With PCP” value is on record?
**A.** The value was 0.5%.

**Q.** With Oc1c(Cl)ccc(Cl)c1Cl [2,3,6-Trichlorophenol] as the molecule, how does the “Percent Cross Reactivity With PCP” value read?
**A.** Its value is 8.8%.

**Q.** Oc1cccc(Cl)c1Cl [2,3-Dichlorophenol] was tested. Which “Percent Cross Reactivity With PCP” value did it give?
**A.** The value was 0%.

**Q.** What about the IC50 of the same molecule?
**A.** The IC50 was > 1 mM.

**Q.** Which results are given for Oc1ccc(Cl)cc1Cl [2,4-Dichlorophenol]?
**A.** Percent Cross Reactivity With PCP: 0%; IC50: > 1 mM

**Q.** Oc1cc(Cl)ccc1Cl [2,5-Dichlorophenol] was tested. Which “Percent Cross Reactivity With PCP” value did it give?
**A.** The value was 0%.

**Q.** What about the IC50 of the same molecule?
**A.** Its IC50 is > 1 mM.

**Q.** Which “Percent Cross Reactivity With PCP” value does the source give for Oc1c(Cl)cccc1Cl [2,6-Dichlorophenol] here?
**A.** The value was 1.8%.

**Q.** How did the “Percent Cross Reactivity With PCP” value turn out when Oc1ccc(Cl)c(Cl)c1 [3,4-Dichlorophenol] was run?
**A.** Its value is 0%.

**Q.** What about the IC50 of the same molecule?
**A.** Its IC50 is > 1 mM.

**Q.** Oc1cc(Cl)cc(Cl)c1 [3,5-Dichlorophenol] was tested. Which “Percent Cross Reactivity With PCP” value did it give?
**A.** Its value is 0%.

**Q.** And the IC50?
**A.** Its IC50 is > 1 mM.

**Q.** How did the “Percent Cross Reactivity With PCP” value turn out when Oc1ccc(Cl)cc1 [4-Chlorophenol] was run?
**A.** The value was 0%.

**Q.** What about the IC50 of the same molecule?
**A.** Its IC50 is > 1 mM.

**Q.** What does the source list for Clc1cc(Cl)c(Cl)c(Cl)c1Cl [Pentachlorobenzene]?
**A.** Percent Cross Reactivity With PCP: 0%; reaction with the antipentachlorophenol antibody: fails to react; IC50: > 1 mM

**Q.** For Oc1ccccc1 [Phenol], which “Percent Cross Reactivity With PCP” value is on record?
**A.** Its value is 0%.

**Q.** What about the IC50 of the same molecule?
**A.** Its IC50 is > 1 mM.

**Q.** For Oc1c(Cl)c(Cl)c(O)c(Cl)c1Cl [Tetrachlorohydroquinone], which “Percent Cross Reactivity With PCP” value is on record?
**A.** Its value is 0.8%.

Reference: patent EP0260829A2 (priority 1986, dated 1988)
